Test results as given in PubChem BioAssay AID330 (DTP/NCI, 2004).
Several values for one entry are separate records, joined by “and”; a condition that tells them apart may be missing. Identical values can stand only once. Toxic doses and inconclusive results are not listed. How the source made its calls: active means survival T/C of 150% or more; inactive means T/C below 125% in these data.

Tested on: P388 leukemia ip, CD2F1 mice, survival T/C
Assay: NCI In Vivo Anticancer Drug Screen. Data for tumor model P388 Leukemia (intraperitoneal) in CD2F1 (CDF1) mice
Conditions: endpoint: median survival time, higher = longer survival
Procedure: The antitumor activity of compounds was measured in mice bearing transplantable tumors. Survival or tumor size were measured and the results are expressed as the measurement made in the treated group (T) divided by the measurement made in the vehicle treated control group (C). The tumor model used in this assay is P388 Leukemia (intraperitoneal) in CD2F1 (CDF1) mice

[1] = dose: 60.0 mg/kg/injection, schedule: Q01DX005 (ip), vehicle: saline with Tween-80
[2] = dose: 60.0 mg/kg/injection, schedule: Q01DX005 (ip), vehicle: Klucel (hydroxypropylcellulose) (HPC)
[3] = dose: 120.0 mg/kg/injection, schedule: Q01DX005 (ip), vehicle: Klucel (hydroxypropylcellulose) (HPC)
[4] = dose: 240.0 mg/kg/injection, schedule: Q01DX005 (ip), vehicle: Klucel (hydroxypropylcellulose) (HPC)
[5] = dose: 6.25 mg/kg/injection, schedule: Q01DX009 (ip), vehicle: saline
[6] = dose: 50.0 mg/kg/injection, schedule: Q01DX009 (ip), vehicle: saline
[7] = dose: 100.0 mg/kg/injection, schedule: Q01DX009 (ip), vehicle: saline
[8] = dose: 200.0 mg/kg/injection, schedule: Q01DX009 (ip), vehicle: saline
[9] = dose: 50.0 mg/kg/injection, schedule: Q01DX009 (ip), vehicle: Klucel (hydroxypropylcellulose) (HPC)
[10] = dose: 100.0 mg/kg/injection, schedule: Q01DX009 (ip), vehicle: Klucel (hydroxypropylcellulose) (HPC)
[11] = dose: 200.0 mg/kg/injection, schedule: Q01DX009 (ip), vehicle: Klucel (hydroxypropylcellulose) (HPC)
[12] = dose: 50.0 mg/kg/injection, schedule: Q01DX009 (ip), vehicle: saline with Tween-80
[13] = dose: 100.0 mg/kg/injection, schedule: Q01DX009 (ip), vehicle: saline with Tween-80
[14] = dose: 200.0 mg/kg/injection, schedule: Q01DX009 (ip), vehicle: saline with Tween-80
[15] = dose: 400.0 mg/kg/injection, schedule: Q01DX009 (ip), vehicle: saline with Tween-80
[16] = dose: 120.0 mg/kg/injection, schedule: Q01DX005 (ip), vehicle: saline with Tween-80
[17] = dose: 240.0 mg/kg/injection, schedule: Q01DX005 (ip), vehicle: saline with Tween-80
[18] = dose: 25.0 mg/kg/injection, schedule: Q01DX009 (ip), vehicle: saline with Tween-80

Measured: T/C

Cc1c([O-])on[n+]1Cc1ccccc1
inactive: [1] 102 % of control

CCCCCC(=O)N1SC(NC(=O)OC)=Nc2ccccc21
inactive: dose: 50.0 mg/kg/injection, schedule: Q01DX005 (ip), vehicle: acetone 102 % of control | dose: 100.0 mg/kg/injection, schedule: Q01DX005 (ip), vehicle: acetone 107 % of control | dose: 200.0 mg/kg/injection, schedule: Q01DX005 (ip), vehicle: acetone 107 % of control

Cc1cc2nc3c(C4OCC(O)C4O)nn(-c4ccc(F)cc4)c3nc2cc1C (stereo not given)
inactive: dose: 12.5 mg/kg/injection, schedule: Q01DX005 (ip), vehicle: Klucel (hydroxypropylcellulose) (HPC) 95 % of control | dose: 25.0 mg/kg/injection, schedule: Q01DX005 (ip), vehicle: Klucel (hydroxypropylcellulose) (HPC) 90 % of control | dose: 50.0 mg/kg/injection, schedule: Q01DX005 (ip), vehicle: Klucel (hydroxypropylcellulose) (HPC) 88 % of control

Cc1cccnc1OCC(=O)O
inactive: [2] 100 % of control and 93 % of control | [3] 103 % of control and 90 % of control | [4] 100 % of control and 92 % of control

N=c1ccn2c(n1)OC1C(O)C(CCl)OC12 (stereo not given)
inactive: [5] 108 % of control | dose: 12.5 mg/kg/injection, schedule: Q01DX009 (ip), vehicle: saline 111 % of control | dose: 25.0 mg/kg/injection, schedule: Q01DX009 (ip), vehicle: saline 106 % of control and 92 % of control | [6] 103 % of control and 106 % of control | [7] 100 % of control and 107 % of control | [8] 110 % of control and 117 % of control

O=c1cc(O)c1=O
inactive: dose: 0.78 mg/kg/injection, schedule: Q01DX009 (ip), vehicle: saline 96 % of control | dose: 1.56 mg/kg/injection, schedule: Q01DX009 (ip), vehicle: saline 109 % of control | dose: 3.13 mg/kg/injection, schedule: Q01DX009 (ip), vehicle: saline 91 % of control | [5] 98 % of control

NN=c1c2ccccc2oc2ccccc12
inactive: [9] 112 % of control | [10] 115 % of control | [11] 115 % of control

CC1(C)C(C#N)C(=O)N(Cc2ccccc2)C(=O)C1C#N (stereo not given)
inactive: [12] 100 % of control | [13] 104 % of control | [14] 113 % of control

CNC(=O)n1cnc2ccccc21
inactive: [13] 110 % of control and 111 % of control | [14] 105 % of control and 118 % of control | [15] 120 % of control and 124 % of control

NC(=O)C(CCO)NC(=O)OCc1ccccc1 (stereo not given)
inactive: dose: 4.0 mg/kg/injection, schedule: Q01DX009 (ip), vehicle: other 101 % of control | dose: 8.0 mg/kg/injection, schedule: Q01DX009 (ip), vehicle: other 106 % of control | dose: 16.0 mg/kg/injection, schedule: Q01DX009 (ip), vehicle: other 101 % of control | dose: 32.0 mg/kg/injection, schedule: Q01DX009 (ip), vehicle: other 101 % of control and 105 % of control | dose: 64.0 mg/kg/injection, schedule: Q01DX009 (ip), vehicle: other 97 % of control | dose: 128.0 mg/kg/injection, schedule: Q01DX009 (ip), vehicle: other 88 % of control | dose: 256.0 mg/kg/injection, schedule: Q01DX009 (ip), vehicle: other 99 % of control

N=Cc1c(O)n(C2CCCCC2)c(=O)[nH]c1=O
inactive: [13] 90 % of control | [15] 95 % of control

COc1ccc(CCNCC(O)CO/N=C(\C)c2ccc(N(C)C)cc2)cc1OC (stereo not given)
inactive: [2] 104 % of control | [3] 101 % of control | [4] 97 % of control

NNc1cc2c(nn1)CCN(C(=O)c1ccccc1)C2
inactive: [6] 98 % of control | [7] 108 % of control

CC(C)(O)C1CC(=O)C(C)(C2C(O)CC3(C)C4CC=C5C(CCC(O)C5(C)C)C4(C)C(=O)CC23C)O1 (stereo not given)
inactive: dose: 9.63 mg/kg/injection, schedule: Q01DX005 (ip), vehicle: saline + alcohol 113 % of control | dose: 19.25 mg/kg/injection, schedule: Q01DX005 (ip), vehicle: saline + alcohol 102 % of control | dose: 38.5 mg/kg/injection, schedule: Q01DX005 (ip), vehicle: saline + alcohol 102 % of control | dose: 77.0 mg/kg/injection, schedule: Q01DX005 (ip), vehicle: saline + alcohol 97 % of control

Oc1ccccc1C=NCCN=Cc1ccccc1O
inactive: [12] 99 % of control | [13] 99 % of control | [14] 101 % of control | [15] 105 % of control

C=CC(=O)C1OC2OC(C)(C)OC2C2OC(C)(C)OC12 (stereo not given)
inactive: dose: 50.0 mg/kg/injection, schedule: Q01DX005 (ip), vehicle: saline with Tween-80 93 % of control | dose: 100.0 mg/kg/injection, schedule: Q01DX005 (ip), vehicle: saline with Tween-80 97 % of control | dose: 200.0 mg/kg/injection, schedule: Q01DX005 (ip), vehicle: saline with Tween-80 98 % of control

CN1CCc2cc(O)c(O)cc2C1Cc1ccc(O)c(O)c1 (stereo not given)
inactive: [12] 100 % of control | [13] 96 % of control

CC(=O)n1c(Cl)c(/C=N/NS(=O)(=O)c2ccc(C)cc2)c2ccccc21
inactive: dose: 25.0 mg/kg/injection, schedule: Q01DX001 (ip), vehicle: saline with Tween-80 100 % of control | dose: 50.0 mg/kg/injection, schedule: Q01DX001 (ip), vehicle: saline with Tween-80 86 % of control and 88 % of control | dose: 100.0 mg/kg/injection, schedule: Q01DX001 (ip), vehicle: saline with Tween-80 91 % of control

O=C(c1ccccc1)c1ccccc1NC(=O)C(F)(F)F
inactive: [12] 100 % of control | [13] 95 % of control | [14] 96 % of control

Oc1ccccc1C=Nc1ccc2nc(SC3CCCC3)sc2c1
inactive: [9] 93 % of control | [10] 97 % of control | [11] 118 % of control

CCCCN(CCCC)/C(N)=N/O
inactive: dose: 20.0 mg/kg/injection, schedule: Q01DX009 (ip), vehicle: saline with Tween-80 92 % of control | dose: 40.0 mg/kg/injection, schedule: Q01DX009 (ip), vehicle: saline with Tween-80 100 % of control | dose: 80.0 mg/kg/injection, schedule: Q01DX009 (ip), vehicle: saline with Tween-80 107 % of control

O=C1CCCCCCCC(=O)Nc2ccc3nc4ccccc4c(c3c2)SCCCCCCCCCSc2c3ccccc3nc3ccc(cc23)N1
inactive: [1] 88 % of control | [16] 99 % of control | [17] 96 % of control

CCOP(=O)(CS(=O)CCC1(C)NC(=O)NC1=O)OCC (stereo not given)
inactive: dose: 50.0 mg/kg/injection, schedule: Q01DX005 (ip), vehicle: saline 100 % of control | dose: 100.0 mg/kg/injection, schedule: Q01DX005 (ip), vehicle: saline 101 % of control | dose: 200.0 mg/kg/injection, schedule: Q01DX005 (ip), vehicle: saline 103 % of control

CCOC(=O)N(C)C(C)=O
inactive: dose: 6.25 mg/kg/injection, schedule: Q01DX009 (ip), vehicle: saline with Tween-80 100 % of control | dose: 12.5 mg/kg/injection, schedule: Q01DX009 (ip), vehicle: saline with Tween-80 97 % of control | [18] 106 % of control | [12] 104 % of control | [13] 96 % of control | [8] 103 % of control

Clc1ccc(-c2n[se]c(-c3ccc(Cl)cc3)n2)cc1
inactive: [18] 87 % of control | [12] 89 % of control

O=[N+]([O-])c1ccccc1OCC1CO1 (stereo not given)
inactive: dose: 25.0 mg/kg/injection, schedule: Q01DX009 (ip), vehicle: Klucel (hydroxypropylcellulose) (HPC) 106 % of control | [9] 105 % of control | [10] 105 % of control

CC1NC(C)N2C(C)N12 (stereo not given)
inactive: dose: 25.0 mg/kg/injection, schedule: Q01DX001 (ip), vehicle: saline 105 % of control | dose: 50.0 mg/kg/injection, schedule: Q01DX001 (ip), vehicle: saline 104 % of control | dose: 100.0 mg/kg/injection, schedule: Q01DX001 (ip), vehicle: saline 104 % of control

CNc1nc(Cl)cc2onc(C)c12
inactive: [1] 94 % of control | [16] 100 % of control | [17] 103 % of control

N#Cc1c(-c2ccc(Cl)c(Cl)c2)c(-c2ccc(Cl)c(Cl)c2)nn(CCO)c1=O
inactive: dose: 25.0 mg/kg/injection, schedule: Q04DX002 (ip), vehicle: distilled water + Tween-80 95 % of control | dose: 50.0 mg/kg/injection, schedule: Q04DX002 (ip), vehicle: distilled water + Tween-80 93 % of control | dose: 100.0 mg/kg/injection, schedule: Q04DX002 (ip), vehicle: distilled water + Tween-80 93 % of control | dose: 200.0 mg/kg/injection, schedule: Q04DX002 (ip), vehicle: distilled water + Tween-80 87 % of control
